Results from patent US9452986B2, “6-heteroaryloxy- or 6-aryloxy-quinoline-2-carboxamides and method of use” (AbbVie Inc., priority 2014, dated 2016).
Like-named read-outs stand apart in the source and are kept apart here.

Biological target: recombinant human Nav1.7 (Homo sapiens (Human), UniProt Q15858)
Experiment: FRET-based membrane potential assay, recombinant human sodium channel Nav1.7
Type: cell-based
Conditions: read-out: FRET-Membrane Potential Nav1.7 IC50
Summary of the method: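 Channel activation used veratridine at its EC80, set by a dilution curve each experiment, together with Leiurus scorpion venom, added 3 min after compound. Membrane-potential ratio signals from FLIPR Tetra in HEPES-buffered HBSS were fitted to a four-parameter Hill equation for percent inhibition and IC50.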

[1] = HEK293 cells stably expressing recombinant human Nav1.7, veratridine + scorpion venom depolarization

Chain of recombinant human Nav1.7 (Q15858 whole entry): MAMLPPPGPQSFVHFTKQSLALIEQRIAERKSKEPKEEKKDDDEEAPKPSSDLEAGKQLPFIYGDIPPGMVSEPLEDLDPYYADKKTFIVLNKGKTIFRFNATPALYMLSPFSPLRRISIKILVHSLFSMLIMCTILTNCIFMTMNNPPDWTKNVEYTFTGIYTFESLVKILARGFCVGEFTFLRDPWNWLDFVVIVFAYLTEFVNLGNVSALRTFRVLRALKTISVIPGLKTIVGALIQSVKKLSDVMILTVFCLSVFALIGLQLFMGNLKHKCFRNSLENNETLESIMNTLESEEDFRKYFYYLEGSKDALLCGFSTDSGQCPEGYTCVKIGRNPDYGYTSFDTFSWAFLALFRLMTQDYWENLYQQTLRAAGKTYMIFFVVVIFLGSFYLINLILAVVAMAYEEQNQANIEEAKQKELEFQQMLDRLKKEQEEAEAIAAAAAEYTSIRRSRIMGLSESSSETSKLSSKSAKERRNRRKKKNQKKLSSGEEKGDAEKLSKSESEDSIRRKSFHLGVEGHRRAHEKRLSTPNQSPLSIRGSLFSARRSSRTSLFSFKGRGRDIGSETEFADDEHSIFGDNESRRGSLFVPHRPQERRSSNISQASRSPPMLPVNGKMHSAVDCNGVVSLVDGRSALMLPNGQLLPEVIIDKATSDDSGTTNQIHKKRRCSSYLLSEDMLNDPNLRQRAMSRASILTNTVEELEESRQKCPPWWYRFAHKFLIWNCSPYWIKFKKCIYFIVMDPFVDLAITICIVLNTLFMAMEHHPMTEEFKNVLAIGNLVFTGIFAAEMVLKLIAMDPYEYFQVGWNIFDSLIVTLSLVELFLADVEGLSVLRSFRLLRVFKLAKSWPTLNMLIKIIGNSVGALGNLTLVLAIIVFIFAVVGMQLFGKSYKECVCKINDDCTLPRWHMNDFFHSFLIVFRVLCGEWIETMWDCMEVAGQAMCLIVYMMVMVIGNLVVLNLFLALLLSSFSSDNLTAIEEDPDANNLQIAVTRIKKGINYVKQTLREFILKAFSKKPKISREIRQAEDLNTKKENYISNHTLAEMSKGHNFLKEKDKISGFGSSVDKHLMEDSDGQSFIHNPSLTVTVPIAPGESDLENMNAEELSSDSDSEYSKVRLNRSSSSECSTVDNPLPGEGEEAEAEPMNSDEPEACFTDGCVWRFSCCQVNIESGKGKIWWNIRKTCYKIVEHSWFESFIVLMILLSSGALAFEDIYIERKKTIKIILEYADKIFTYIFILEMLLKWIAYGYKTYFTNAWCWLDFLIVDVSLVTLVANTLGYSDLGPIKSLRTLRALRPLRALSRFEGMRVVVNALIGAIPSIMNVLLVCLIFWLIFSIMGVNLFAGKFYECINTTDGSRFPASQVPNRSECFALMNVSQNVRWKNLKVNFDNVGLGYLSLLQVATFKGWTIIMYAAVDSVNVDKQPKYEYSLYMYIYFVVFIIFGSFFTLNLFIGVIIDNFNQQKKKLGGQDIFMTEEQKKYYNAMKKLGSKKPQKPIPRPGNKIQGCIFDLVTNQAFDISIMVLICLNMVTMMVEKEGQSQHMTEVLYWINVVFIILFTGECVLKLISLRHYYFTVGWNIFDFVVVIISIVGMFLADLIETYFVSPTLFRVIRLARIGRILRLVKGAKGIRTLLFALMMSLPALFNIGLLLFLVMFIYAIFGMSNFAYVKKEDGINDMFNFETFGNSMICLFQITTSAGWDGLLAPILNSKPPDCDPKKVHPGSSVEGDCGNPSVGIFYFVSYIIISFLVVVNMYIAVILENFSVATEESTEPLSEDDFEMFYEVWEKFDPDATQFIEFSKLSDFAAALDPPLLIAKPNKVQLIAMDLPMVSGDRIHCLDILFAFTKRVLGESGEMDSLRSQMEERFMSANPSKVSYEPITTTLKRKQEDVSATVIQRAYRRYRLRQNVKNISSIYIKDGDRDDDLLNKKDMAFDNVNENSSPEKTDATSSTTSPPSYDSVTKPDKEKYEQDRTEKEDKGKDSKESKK

`O=C(NCCN1CCCC1)c1ccc2cc(Oc3ccc(C(F)(F)F)cn3)ccc2n1` [Example 174, N-[2-(pyrrolidin-1-yl)ethyl]-6-{[5-(trifluoromethyl)pyridin-2-yl]oxy}quinoline-2-carboxamide] showed an IC50 [1] of 294 nM.
In the case of `C[C@@H]1N(C(=O)c2ccc3cc(Oc4ccc(C(F)(F)F)cn4)ccc3n2)CC1(C)C` [Example 205, (6-{[5-(trifluoromethyl)pyridin-2-yl]oxy}quinolin-2-yl)[(2S)-2,3,3-trimethylazetidin-1-yl]methanone], the IC50 [1] is reported as 3170 nM.
`O=C(c1ccc2cc(Oc3ccc(C(F)(F)F)cn3)ccc2n1)N1CC[C@@H](N2CCCCC2)C1` [Example 319, [(3R)-3-(piperidin-1-yl)pyrrolidin-1-yl](6-{[5-(trifluoromethyl)pyridin-2-yl]oxy}quinolin-2-yl)methanone] showed an IC50 [1] of 285 nM.
Molecule `O=C(N[C@@H]1CCN(C(=O)c2ccc3cc(Oc4ccc(C(F)(F)F)cn4)ccc3n2)C1)C1CC1` [Example 439, N-{(3R)-1-[(6-{[5-(trifluoromethyl)pyridin-2-yl]oxy}quinolin-2-yl)carbonyl]pyrrolidin-3-yl}cyclopropanecarboxamide] has an IC50 [1] of 5860 nM.
`N#Cc1ccc(Oc2ccc3nc(C(=O)N4CCNC(=O)C4)ccc3c2)cc1` [Example 137, 4-({2-[(3-oxopiperazin-1-yl)carbonyl]quinolin-6-yl}oxy)benzonitrile] showed an IC50 [1] of 8240 nM.
`O=C(c1ccc2cc(Oc3ccc(C(F)(F)F)cn3)ccc2n1)N1CC(n2ccnc2)C1` [Example 202, [3-(1H-imidazol-1-yl)azetidin-1-yl](6-{[5-(trifluoromethyl)pyridin-2-yl]oxy}quinolin-2-yl)methanone] was tested, and the IC50 [1] was 911 nM.
Molecule `O=C1CCN(C(=O)CNC(=O)c2ccc3cc(Oc4ccc(C(F)(F)F)cn4)ccc3n2)C1` [Example 572, N-[2-oxo-2-(3-oxopyrrolidin-1-yl)ethyl]-6-{[5-(trifluoromethyl)pyridin-2-yl]oxy}quinoline-2-carboxamide] has an IC50 [1] of 2700 nM.
Molecule `CS(=O)(=O)NC(=O)c1ccc2cc(Oc3ccc(C(F)(F)F)cn3)ccc2n1` [Example 577, N-(methylsulfonyl)-6-{[5-(trifluoromethyl)pyridin-2-yl]oxy}quinoline-2-carboxamide] has an IC50 [1] of 10100 nM.
Molecule `O=C(c1ccc2cc(Oc3ccc(C(F)(F)F)cn3)ccc2n1)N1CC(N2CC[C@H](F)C2)C1` [Example 586, {3-[(3S)-3-fluoropyrrolidin-1-yl]azetidin-1-yl}(6-{[5-(trifluoromethyl)pyridin-2-yl]oxy}quinolin-2-yl)methanone] has an IC50 of 1800 nM.
Molecule `CON=C1CCN(C(=O)c2ccc3cc(Oc4ccc(C(F)(F)F)cn4)ccc3n2)CC1` [Example 353, [4-(methoxyimino)piperidin-1-yl](6-{[5-(trifluoromethyl)pyridin-2-yl]oxy}quinolin-2-yl)methanone] has an IC50 of 3630 nM.
With `N[C@@H]1CCN(C(=O)c2ccc3cc(Oc4ccc(C(F)(F)F)cn4)ccc3n2)C1` [Example 310, [(3R)-3-aminopyrrolidin-1-yl](6-{[5-(trifluoromethyl)pyridin-2-yl]oxy}quinolin-2-yl)methanone] the IC50 [1] was 665 nM.
`NC(=O)C1CN(C(=O)c2ccc3cc(Oc4ccc(C(F)(F)F)cn4)ccc3n2)CCN1` (centres unmarked) [Example 402, 4-[(6-{[5-(trifluoromethyl)pyridin-2-yl]oxy}quinolin-2-yl)carbonyl]piperazine-2-carboxamide] showed an IC50 [1] of 9070 nM.
For `O=C(c1ccc2cc(Oc3ccc(C(F)(F)F)cn3)ccc2n1)N1CCN(S(=O)(=O)c2ccccc2)CC1` [Example 178, [4-(phenylsulfonyl)piperazin-1-yl](6-{[5-(trifluoromethyl)pyridin-2-yl]oxy}quinolin-2-yl)methanone], the IC50 was 523 nM.
`O=C(c1ccc2cc(Oc3ccc(C(F)(F)F)cn3)ccc2n1)N1CCSCC1` [Example 221, thiomorpholin-4-yl(6-{[5-(trifluoromethyl)pyridin-2-yl]oxy}quinolin-2-yl)methanone] gave an IC50 of 2790 nM.
`O=C(NCC(=O)N1CCS(=O)(=O)C1)c1ccc2cc(Oc3ccc(C(F)(F)F)cn3)ccc2n1` [Example 568, N-[2-(1,1-dioxido-1,3-thiazolidin-3-yl)-2-oxoethyl]-6-{[5-(trifluoromethyl)pyridin-2-yl]oxy}quinoline-2-carboxamide] gave an IC50 [1] of 3260 nM.
`O=C(c1ccc2cc(Oc3ccc(C(F)(F)F)cn3)ccc2n1)N1CCOC(CF)C1` (centres unmarked) [Example 340, [2-(fluoromethyl)morpholin-4-yl](6-{[5-(trifluoromethyl)pyridin-2-yl]oxy}quinolin-2-yl)methanone] was tested, and the IC50 [1] was 2900 nM.
`N#Cc1ccc(Oc2ccc3nc(C(=O)NCC(N)=O)ccc3c2)cc1` [Example 146, N-(2-amino-2-oxoethyl)-6-(4-cyanophenoxy)quinoline-2-carboxamide] showed an IC50 [1] of 8030 nM.
Molecule `O=C(NC1COC1)c1ccc2cc(Oc3ccc(C(F)(F)F)cn3)ccc2n1` [Example 399, N-(oxetan-3-yl)-6-{[5-(trifluoromethyl)pyridin-2-yl]oxy}quinoline-2-carboxamide] has an IC50 [1] of 375 nM.
In the case of `O=C(c1ccc2cc(Oc3ccc(C(F)(F)F)cn3)ccc2n1)N1CCC(F)(F)C1` [Example 404, (3,3-difluoropyrrolidin-1-yl)(6-{[5-(trifluoromethyl)pyridin-2-yl]oxy}quinolin-2-yl)methanone], the IC50 [1] is reported as 1950 nM.
`N[C@@H]1CCN(C(=O)c2ccc3cc(Oc4ccc(C(F)(F)F)cn4)ccc3n2)C[C@H]1F` [Example 583, [(3R,4R)-4-amino-3-fluoropiperidin-1-yl](6-{[5-(trifluoromethyl)pyridin-2-yl]oxy}quinolin-2-yl)methanone] was tested, and the IC50 was 960 nM.
`O=C(c1ccc2cc(Oc3ncc(C(F)(F)F)cc3Br)ccc2n1)N1CCNCC1` [Example 295, (6-{[3-bromo-5-(trifluoromethyl)pyridin-2-yl]oxy}quinolin-2-yl)(piperazin-1-yl)methanone] showed an IC50 of 3200 nM.
`O=C(c1ccc2cc(Oc3ccc(C(F)(F)F)cn3)ccc2n1)N1C[C@@H]2CN[C@@H]2C1` [Example 278, (1S,5S)-3,6-diazabicyclo[3.2.0]hept-3-yl(6-{[5-(trifluoromethyl)pyridin-2-yl]oxy}quinolin-2-yl)methanone] gave an IC50 of 3720 nM.
For `O=C(NC1CCOCC1)c1ccc2cc(Oc3ccc(C(F)(F)F)cn3)ccc2n1` [Example 327, N-(tetrahydro-2H-pyran-4-yl)-6-{[5-(trifluoromethyl)pyridin-2-yl]oxy}quinoline-2-carboxamide], the IC50 [1] was 557 nM.
In the case of `O=C(NCCC(=O)N1CCOCC1)c1ccc2cc(Oc3ccc(C(F)(F)F)cn3)ccc2n1` [Example 444, N-[3-(morpholin-4-yl)-3-oxopropyl]-6-{[5-(trifluoromethyl)pyridin-2-yl]oxy}quinoline-2-carboxamide], the IC50 [1] is reported as 1400 nM.
For `O=C(c1ccc2cc(Oc3ccc(C(F)(F)F)cn3)ccc2n1)N1CCC(F)(F)C(O)C1` (centres unmarked) [Example 193, (4,4-difluoro-3-hydroxypiperidin-1-yl)(6-{[5-(trifluoromethyl)pyridin-2-yl]oxy}quinolin-2-yl)methanone], the IC50 [1] was 4250 nM.
In the case of `O=C(N[C@@H]1CS(=O)(=O)C[C@H]1O)c1ccc2cc(Oc3ccc(C(F)F)cn3)ccc2n1` [Example 477, 6-{[5-(difluoromethyl)pyridin-2-yl]oxy}-N-[(3S,4S)-4-hydroxy-1,1-dioxidotetrahydrothiophen-3-yl]quinoline-2-carboxamide], the IC50 [1] is reported as 5510 nM.
